# Results as given in patent US20250345295A1, “LMK235 COMPOSITIONS AND METHODS” (UNM Rainforest Innovations, priority 2024, published 2025).
# “Also recorded” adds a separate entry of the source.
# Columns and labels:
# FRICT-ION mice = test: Cold probe (10° C.) sensitivity test, FRICT-ION model; type: in vivo, mouse; settings: 5 mg/kg, vs FRICT-ION+vehicle
# From the text: The FRICT-ION chronic neuropathic pain model combines the chemical irritation of chromic gut suture with some physical compression of the maxillary branch (V2) of the trigeminal nerve. FRICT-ION model was induced in 9-week-old mice anesthetized briefly with isoflurane (2-3%). Intraoral surgical incision was made with a small scalpel puncture at the buccal cheek crease. A piece of chromic gut suture (3 mm length, 4-0) was placed parallel to the infraorbital nerve (ION) and pushed into the tight space to follow the trigeminal nerve as it passes into the foramen rotundum of the skull. The model simulates blunt force traumatic injury to the nerve, residual wound debris, or other irritation.
# On the day of FRICT-ION model induction in BALBc mice, LMK235 was administered and treatment was continued for seven days. Withdrawal thresholds were determined weekly with von Frey fiber stimulation on the snout. Cold sensitivity on the snout and anxiety were tested once prior to experiment end in week 8-9.
# Mechanical and cold sensitivity was modified for face as previously described (Montera M A, Westlund K N, Bio-protocol2020 April 20; 10(8):e3591-e3591; Lyons et al., Neuroscience 2015 Jun. 4; 295:126-138; Ma et al., Mol Brain 2012 Dec. 28; 5:44; Montera et al., Channels (Austin). 2021 December; 15(1):31-37). […]
# [1] = system: mice with trigeminal nerve injury; test: Light/dark place preference test (anxiety-like behavior); type: in vivo, mouse; settings: nerve-injured mice, weeks 6-9 post surgery
# Description: Anxiety-related behaviors were assessed in a manner typical in the literature—i.e., once at the end in week 8 since anxiety develops only in mice 6-8 weeks after persisting nerve injury (e.g., Lyons et al., Neuroscience 2015 Jun. 4; 295:126-138). The effects of HDACi on chronic craniofacial pain-related behaviors were assessed using light/dark place preference test and zero maze.
# Animals were exposed to acoustic startle (5 minutes) immediately prior to placement in the light/dark place preference box as in a previous study (Lyons et al., Neuroscience 2015 Jun. 4; 295:126-138). Mils acoustic startle stress just prior to the test induces panic anxiety-like behavior with increased time and entries in the open arms compared to controls (de Paula HMG, Hoshino K, Behav Brain Res 2003 Dec. 17; 147(1-2):157-162; de Paula HMG, Hoshino K, Physiol Behav 2004 January; 80(4):459-464; Kontinen et al., Pain 1999 March;80(1-2):341-346). In the light/dark box place preference task (total time 10 minutes) anxiety-like behaviors were recorded as: (i) total time spent in the light area, (ii) number of entries into the light area, (iii) number of rearing events/exploratory behavior, (iv) latency of the first transition into the light chamber, and (v) latency of first re-entry (transition) back into the dark chamber.
# [2] = system: small (<30 μm) TG neurons from naïve mice; test: Whole-cell patch-clamp electrophysiology, TG neurons from naïve mice; type: cell-based, mouse; settings: 13 μM for one hour vs 0.1% DMSO
# Description: The excitability of TG neurons is directly linked to the pathophysiology of trigeminal neuropathic pain. In order to determine the effect of LMK235 on TG neurons from FRICT-ION mice, whole-cell patch-clamp electrophysiological recordings were made from small (<30 μm) TG neurons in the presence of LMK235 (13 μM) or vehicle (0.1% DMSO). TG neurons were obtained from FRICT-ION mice at three weeks post injury or naïve mice. The TG neurons were treated for one hour in vitro with either LMK235 or vehicle control prior to recording (FIG. 7).
# Neurons with a diameter of <30 μm were identified by infrared differential interference contrast (IR-DIC) imaging with a microscope connected to an Olympus digital camera. Current clamp recordings were performed using a Molecular Devices Multiclamp 700B (Scientifica, UK). Signals were filtered at 5 KHz, acquired at 50 KHz using a Molecular Devices 1550B converter (Scientifica, UK) and recorded using Clampex 11 software (Molecular Devices, Scientifica, UK). Electrodes were pulled with a Zeitz puller (Werner Zeitz, Martinsreid, Germany) from borosilicate thick glass (GC150F, Sutter Instruments). Electrode resistance was 5-8 MΩ. Bridge balance was applied to all recordings. Intracellular solution contained (in mM) 125 K-gluconate, 6 KCl, 10 HEPES, 0.1 EGTA, 2 Mg-ATP, pH 7.3 with KOH, and osmolarity of 290-310 mOsm. Artificial cerebrospinal fluid (aCSF) contained (in mM) 113 NaCl, 3 KCl, 25 NaHCO3, 1 NaH2PO4, 2 CaCl2), 2 MgCl2, and 11-glucose. For whole-cell current clamp recordings, to evaluate the basic input-output action potential frequency response to hyperpolarization and depolarization, DC current was injected from 0 pA to +200 pA in 10-pA increments for a duration of 500 milliseconds at the cell's intrinsic resting membrane potential. Data acquisition was sampled at 20 kHz and filtered at 2.4 kHz. Recordings with a series resistance greater than 20 MΩ were discarded, and series resistance was compensated to 70%. In response to a −100 pA hyperpolarizing pulse with 500 millisecond duration, voltage sag amplitude was measured. Sag ratio was calculated using the following equation as described previously (Fan et al., Front Cell Neurosci 2016 Mar. 24; 10:74):
# where Vpeak is the maximum voltage deflection and Vss is the steady state voltage at the end of the hyperpolarizing pulse.
# Male mice were euthanized three weeks after inducing the FRICT-ION model. The TG were dissected, minced, and dissociated in an enzymatic combination containing sterile, calcium-free, and magnesium-free HBSS (Cat #14170112, Gibco), papain suspension (32.7 U/mgP, Cat #LS003126; Worthington, Lakewood, NJ), L-Cysteine (Cat #C7352-25g, Sigma), and saturated bicarbonate (Cat #S5761-500g, Sigma) solution. […]
smiles,measurement,setting,value
"Cc1cc(C)cc(C(=O)NOCCCCCC(=O)NO)c1 [LMK235, N-[[6-(Hydroxyamino)-6-oxohexyl]oxy]-3,5-dimethyl-benzamide]",cold hypersensitivity (10° C. cold probe on snout),FRICT-ION mice,significantly improved; also recorded: reduced
same,"anxiety-like behaviors, light/dark box test",[1],reduction of anxiety measures; also recorded: inhibited the development of anxiety-like behaviors
same,electrophysiological properties,[2],not significantly altered
same,resting membrane potential (RMP),[2],no significant differences
same,rheobase,[2],no significant differences
same,sag ratio,[2],no effect
